Experiments:
[1] = Particle size of Luc DNA-encapsulated lipid nanoparticles; format: physicochemical; settings: cationic lipid:DPPC:cholesterol:GM-020=60:10.6:28:1.4 molar ratio
Text: The particle size of the lipid particle (in the composition) can be measured by a known approach. For example, the particle size can be calculated as a Z-average particle size by the cumulant analysis of an autocorrelation function using a particle size measurement apparatus Zetasizer Nano ZS (Malvern Instruments) based on a dynamic light scattering measurement technique. The particle size (average particle size) of the lipid particle (in the composition) is, for example, 10 to 200 nm, preferably 60 to 170 nm.
(§1) A lipid mixture containing a cationic lipid of the Examples shown in Table 2 (cationic lipid:DPPC:cholesterol:GM-020=60:10.6:28:1.4, molar ratio) was dissolved in 90% of EtOH and 10% of water to obtain a 15.0 mg/ml lipid solution. Luciferase (luc) DNA (manufactured by Nature Technology Corp.) was dissolved in a 10 mM MES buffer solution (pH 5.5) to obtain a 0.3 mg/ml nucleic acid solution. The obtained lipid solution and nucleic acid solution were mixed at a flow rate ratio of 3 ml/min:6 ml/min at room temperature using NanoAssemblr (manufactured by Precision NanoSystems Inc.) to obtain a dispersion containing Luc DNA-encapsulated lipid nanoparticles. The obtained dispersion was dialyzed against water at room temperature for 1 hour and against PBS at 4° C. for 23 hours using Slyde-A-Lyzer (molecular weight cutoff: 20 K, Thermo Fischer Scientific Inc.). Subsequently, the dialysate was filtered through a 0.2 µm syringe filter (Iwaki). A 60% solution of sucrose in PBS was added thereto, and the mixture was preserved as a 20% solution of sucrose in PBS at −80° C. Analysis results of particle size and rate of encapsulation of the Luc DNA-encapsulated lipid nanoparticles are also shown in Table 2.

ICrl:CD1 (ICR) mice = assay: Mouse bioluminescence imaging evaluation (Test Example 1); format: in vivo; settings: Luc DNA-encapsulated lipid nanoparticles 10 mL/kg i.v. to ICR mice; IVIS total flux 15 minutes after luciferin i.p.
Experimental: The Luc DNA-encapsulated lipid nanopatricles obtained in the aforesaid Production Example were intravenously administered to the tails of ICrl:CD1 (ICR) mice (10 mL/kg i.v.). After administration of the lipid particles, luciferin (15 mg/mL) was administered to the mice (10 mL/kg i.p.), which were loaded in an IVIS (in vivo imaging system) apparatus (manufactured by PerkinElmer, Inc.) under isoflurane inhalation anesthesia. Luminescence images of the mice were taken ventrally (in a supine position) 15 minutes after luciferin administration. The luminescence was digitized with the software of IVIS, followed by evaluation using the value of total flux. Higher luminescence means strong expression of the protein encoded by the DNA encapsulate in the lipid particle. In Table 2, higher luminescence is indicated on a scale of A, B and C in order. A represents luminescence of 3.0E+07 or more, B represents luminescence of 1.0E+0.7 or more and less than 3.0E+07, and C represents luminescence of less than 1.0E+07.

[2] = Rate of encapsulation of Luc DNA in lipid nanoparticles; format: physicochemical; design: unit: %; settings: Luc DNA-encapsulated lipid nanoparticles; cationic lipid:DPPC:cholesterol:GM-020=60:10.6:28:1.4 molar ratio
Text: The concentration and rate of encapsulation of the nucleic acid (e.g., siRNA or mRNA) in the composition of the present invention can be measured by a known approach. For example, the nucleic acid is fluorescently labeled using Quant-iT™ RiboGreen® (Invitrogen Corp.), and the fluorescence intensity can be measured to determine the concentration and the rate of encapsulation. The concentration of the nucleic acid in the composition can be calculated using a calibration curve prepared from aqueous nucleic acid solutions having known concentrations. The rate of encapsulation can be calculated on the basis of the difference in fluorescence intensity between the presence and absence of addition of Triton-X 100 (surfactant for disrupting the lipid particle). The concentration of the nucleic acid in the composition refers to the total concentration of a nucleic acid encapsulated in the lipid particle and an unencapsulated nucleic acid. The rate of encapsulation refers to the ratio of the nucleic acid encapsulated in the lipid particle to all nucleic acids in the composition.
as §1

Structure (SMILES)	Particle size (nm) [1] [nm]	Rate of encapsulation [2]	Luminescence (ICrl:CD1 (ICR) mice)
CCCCCC(CCCCC)CC(=O)OCC(COC(=O)CCCCC(=O)OCCCC)(COC(=O)CCCN(CC)CC)COC(=O)CC(CCCCC)CCCCC [Example 21, Butyl 2-({[4-(diethylamino)butanoyl]oxy}methyl)-3-[(3-pentyloctanoyl)oxy]-2-{[(3-pentyloctanoyl)oxy]methyl}propyl hexanedioate]	131.4	96.2	B (B represents luminescence of 1.0E+0.7 or more and less than 3.0E+07)
CCCCCCCCC(C(=O)OC)C(=O)OCC(COC(=O)CCCN(CC)C(C)C)(COC(=O)CC(CCCCC)CCCCC)COC(=O)C(CCCCCCCC)C(=O)OC (stereo not drawn) [Example 133, 1,1′-(2-[({4-[Ethyl(propan-2-yl)amino]butanoyl}oxy)methyl]-2-{[(3-pentyloctanoyl)oxy]methyl}propane-1,3-diyl) 3,3′-dimethyl bis(octylpropanedioate)]	133.4	95.3	C (C represents luminescence of less than 1.0E+07)
CCCCCCCOC(=O)CCCCC(=O)OCC(COC(=O)CCCN(CC)CC)(COC(=O)CC(CCCCC)CCCCC)COC(=O)CC(CCCCC)CCCCC [Example 17, 2-({[4-(Diethylamino)butanoyl]oxy}methyl)-3-[(3-pentyloctanoyl)oxy]-2-{[(3-pentyloctanoyl)oxy]methyl}propyl heptyl hexanedioate]	120.7	96.2	B (B represents luminescence of 1.0E+0.7 or more and less than 3.0E+07)
CCCCCC(CCCCC)COC(=O)CCC(=O)OCC(COC(=O)CCCCN(C)C)(COC(=O)CCC(=O)OCC(CCCCC)CCCCC)COC(=O)CCC(=O)OCC(CCCCC)CCCCC [Example 38, 1,1′ {2-({[5-(Dimethylamino)pentanoyl]oxy}methyl)-2-[({4-oxo-4-[(2-pentylheptyl)oxy]butanoyl}oxy)methyl]propane-1,3-diyl} 4,4′-bis(2-pentylheptyl) dibutanedioate]	131.3	95.2	A (A represents luminescence of 3.0E+07 or more)
CCCCCCCCCCOC(=O)CCCCC(=O)OCC(COC(=O)CCCCC(=O)OCCCCCCCCCC)(COC(=O)CCCCC(=O)OCCCCCCCCCC)COC(=O)CCCN(C)C [Example 42, 1,1′-Didecyl 6,6′-[2-({[6-(dexyloxy)-6-oxohexanoyl]oxy}methyl)-2-({[4-(dimethylamino)butanoyl]oxy}methyl)propane-1,3-diyl] dihexanedioate]	114.5	86.2	C (C represents luminescence of less than 1.0E+07)
CCCCCCCCCCC(C(=O)OC)C(=O)OCC(COC(=O)CCCN(C)C)(COC(=O)CC(CCCCC)CCCCC)COC(=O)C(CCCCCCCCCC)C(=O)OC (stereo not drawn) [Example 134, 1,1′-[2-({[4-(Dimethylamino)butanoyl]oxy}methyl)-2-{[(3-pentyloctanoyl)oxy]methyl}propane-1,3-diyl] 3,3′-dimethyl bis(decylpropanedioate)]	103.0	94.5	A (A represents luminescence of 3.0E+07 or more)
CCCCCCOC(=O)C(CCCCCC)C(=O)OCC(COC(=O)CCCCN(C)C)(COC(=O)CC(CCCCC)CCCCC)COC(=O)C(CCCCCC)C(=O)OCCCCCC (stereo not drawn) [Example 122, 1,1′-[2-({[5-(Dimethylamino)pentanoyl]oxy}methyl)-2-{[(3-pentyloctanoyl)oxy]methyl}propane-1,3-diyl] 3,3′-dihexyl bis(hexylpropanedioate)]	152.1	96.0	B (B represents luminescence of 1.0E+0.7 or more and less than 3.0E+07)

Second part, led by results:

Particle size (nm) [1] [nm]	Rate of encapsulation [2]	Structure (SMILES)	Luminescence (ICrl:CD1 (ICR) mice)
128.7	73.5	CCCCCC(CCCCC)CC(=O)OCC(COC(=O)CCCCCCCCCCC(=O)OC)(COC(=O)CCCCCCCCCCC(=O)OC)COC(=O)CCCN(C)C [Example 77, 1,1′-[2-({[4-(Dimethylamino)butanoyl]oxy}methyl)-2-{[(3-pentyloctanoyl)oxy]methyl}propane-1,3-diyl] 12,12′-dimethyl didodecanedioate]	B (B represents luminescence of 1.0E+0.7 or more and less than 3.0E+07)
148.7	92.9	CCCCCCCOC(=O)CCCCC(=O)OCC(COC(=O)CCCCC(=O)OCCCCCCC)(COC(=O)CCCN(C)C)COC(=O)C(CCCCC)CCCCC [Example 83, 1,1′-[2-({[4-(Dimethylamino)butanoyl]oxy}methyl)-2-{[(2-pentylheptanoyl)oxy]methyl}propane-1,3-diyl] 6,6′-diheptyl dihexanedioate]	B (B represents luminescence of 1.0E+0.7 or more and less than 3.0E+07)
111.9	96.5	CCCCCCCOC(=O)CCCCC(=O)OCC(COC(=O)CCCCC(=O)OCCCCCCC)(COC(=O)CCCN(CC)C(C)C)COC(=O)CC(CCCCC)CCCCC [Example 91, 1,1′-(2-[({4-[Ethyl(propan-2-yl)amino]butanoyl}oxy)methyl]-2-{[(3-pentyloctanoyl)oxy]methyl}propane-1,3-diyl] 6,6′-diheptyl dihexanedioate]	B (B represents luminescence of 1.0E+0.7 or more and less than 3.0E+07)
144.9	92.6	CCCCCOC(=O)CCCCCCC(=O)OCC(COC(=O)CCCCCCC(=O)OCCCCC)(COC(=O)CCCN(C)C)COC(=O)CC(CCCCC)CCCCC [Example 129, 1,1′-[2-({[4-(Dimethylamino)butanoyl]oxy}methyl)-2-{[(3-pentyloctanoyl)oxy]methyl}propane-1,3-diyl] 8,8′-dipentyl dioctanedioate]	A (A represents luminescence of 3.0E+07 or more)
184.3	52.7	CCCCCC(CCCCC)CC(=O)OCC(COC(=O)CCCCCCCC(=O)OCCCC)(COC(=O)CCCN(C)C)COC(=O)CC(CCCCC)CCCCC [Example 34, Butyl 2-({[4-(dimethylamino)butanoyl]oxy}methyl)-3-[(3-pentyloctanoyl)oxy]-2-{[(3-pentyloctanoyl)oxy]methyl}propyl nonanedioate]	C (C represents luminescence of less than 1.0E+07)
125.7	94.1	CCCCCCCOC(=O)CCCCC(=O)OCC(COC(=O)CCCCC(=O)OCCCCCCC)(COC(=O)CCCN(C(C)C)C(C)C)COC(=O)CC(CCCCC)CCCCC [Example 92, 1,1′-(2-[({4-[di(Propan-2-yl)amino]butanoyl}oxy)methyl]-2-{[(3-pentyloctanoyl)oxy]methyl}propane-1,3-diyl] 6,6′-diheptyl dihexanedioate]	B (B represents luminescence of 1.0E+0.7 or more and less than 3.0E+07)
153.8	92.4	CCCCCCOC(=O)CCCCCC(=O)OCC(COC(=O)CCCCCC(=O)OCCCCCC)(COC(=O)CCCN(C)C)COC(=O)CC(CCCCC)CCCCC [Example 99, 1,1′-[2-({[4-(Dimethylamino)butanoyl]oxy}methyl)-2-{[(3-pentyloctanoyl)oxy]methyl}propane-1,3-diyl] 7,7′-dihexyl diheptanedioate]	A (A represents luminescence of 3.0E+07 or more)

From patent publication US20250197343A1, “CATIONIC LIPID” (TAKEDA PHARMACEUTICAL COMPANY LIMITED, priority 2021, published 2025)
